The text below walks through data of patent publication US20110053964A1, “4-AMINOQUINAZOLINE DERIVATIVES AND METHODS OF USE THEREOF” (priority 2006, published 2011).

The nature of series [1]: Pharmacokinetics in rats, intravenous. The series is classed as in vivo, Sprague-Dawley rats. The conditions noted are these: rat, single intravenous bolus 2 mg/kg; for half-life compared to lapatinib: tosylate salt (FIGS. 2 and 3). As to the method: Rats were anesthetized using pentobarbital (IP 40 mg/kg) prior to administration of compound. […] The rats were administered a single bolus 2 mg/kg dose of compound via jugular cannula, followed by a wash-out with saline. Blood samples (0.25 mL) were taken from the jugular at 5, 15 and 30 minutes and at 1, 2, 4, 6, 9, 12, and 24 hours post-dosing. Blood samples were centrifuged within 15 minutes of removal from the animal, centrifuged, and the plasma fraction removed and stored at −20° C. until analysis. Samples were analyzed by LC-MS.

Series [2] is described as follows: Pharmacokinetics in rats, oral dosing. The conditions noted are these: rat, oral dosing 20 mg/kg, tosylate salt; data not shown.

`Cc1ccc(S(=O)(=O)O)cc1.Cc1ccc(S(=O)(=O)O)cc1.[2H]C([2H])(CS(C)(=O)=O)NC([2H])([2H])c1ccc(-c2ccc3ncnc(Nc4ccc(OCc5cccc(F)c5)c(Cl)c4)c3c2)o1` [Compound 101, [3-Chloro-4-(3-fluorobenzyloxy)phenyl]-(6-{5-[(2-methanesulfonyl-1,1-d2-ethylamino)-d2-methyl]-furan-2-yl}-quinazolin-4-yl)amine di-tosylate]: in series [1], the “half-life compared to lapatinib” value was “significantly longer half-lives than lapatinib”. Further, in series [2], the “half life compared to lapatinib” value was “longer half lives than lapatinib”.
The matching figures for `Cc1ccc(S(=O)(=O)O)cc1.Cc1ccc(S(=O)(=O)O)cc1.[2H]C([2H])(NC([2H])([2H])C([2H])([2H])S(=O)(=O)C([2H])([2H])[2H])c1ccc(-c2ccc3ncnc(Nc4ccc(OCc5cccc(F)c5)c(Cl)c4)c3c2)o1` [Compound 102, [3-Chloro-4-(3-fluoro-benzyloxy)-phenyl]-(6-{5-[(2-d3-methanesulfonyl-1,1,2,2-4-ethylamino)-d2-methyl]-furan-2-yl}-quinazolin-4-yl)amine di-tosylate]: “significantly longer half-lives than lapatinib” and “longer half lives than lapatinib”.
The half-life is how long it takes for the measured level to halve. As to `CS(=O)(=O)CCNCc1ccc(-c2ccc3ncnc(Nc4ccc(OCc5cccc(F)c5)c(Cl)c4)c3c2)o1.Cc1ccc(S(=O)(=O)O)cc1` [Lapatinib, [3-Chloro-4-(3-fluorobenzyloxy)phenyl](6-{5-[(2-methanesulfonylethylamino)-methyl]furan-2-yl}-quinazolin-4-yl)amine 4-toluenesulfonate salt, reference compound], the half-life in series [1] (Sprague-Dawley, tosylate salt, plasma) was 1 ± 0.05 h.
